This is an account of results in PMC3942743 (Toxins, 2014).

SMILES strings stand for the structures. Counter-ions that a name gives are not always drawn.

For the data set, the target named is uremic plasma (Homo sapiens, UniProt P02768). As to the kind of experiment: Binding capacity of uremic plasma for IS at different NaCl concentrations. The data set is classed as in vitro ADME.
uremic plasma, sequence (P02768 25-609): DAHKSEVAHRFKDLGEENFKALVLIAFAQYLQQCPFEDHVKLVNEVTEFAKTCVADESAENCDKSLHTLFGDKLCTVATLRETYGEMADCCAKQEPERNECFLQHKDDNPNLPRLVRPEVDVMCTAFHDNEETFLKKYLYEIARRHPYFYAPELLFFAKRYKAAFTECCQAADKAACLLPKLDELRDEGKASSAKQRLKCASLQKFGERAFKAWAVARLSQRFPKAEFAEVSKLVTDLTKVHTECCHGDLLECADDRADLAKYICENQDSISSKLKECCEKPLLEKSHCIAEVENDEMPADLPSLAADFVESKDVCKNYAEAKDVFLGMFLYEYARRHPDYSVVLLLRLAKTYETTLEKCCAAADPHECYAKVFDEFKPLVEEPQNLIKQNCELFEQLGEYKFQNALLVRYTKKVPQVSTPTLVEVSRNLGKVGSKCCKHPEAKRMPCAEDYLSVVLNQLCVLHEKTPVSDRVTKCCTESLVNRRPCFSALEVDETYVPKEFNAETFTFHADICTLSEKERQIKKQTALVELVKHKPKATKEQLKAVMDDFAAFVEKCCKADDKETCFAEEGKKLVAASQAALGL

Method: After having received approval from the competent institutional review board (ethics committee of the University Hospital Würzburg, code AZ 64/12), written informed consent was obtained from 15 end-stage renal disease patients on maintenance hemodialysis in a single dialysis center (Dialysis center, Elsenfeld, Germany). Blood (7.5 mL) was collected in EDTA-tubes from each patient before dialysis.

Regarding `Cc1ccc(OS(=O)(=O)O)cc1` [p-cresyl sulfate], under “[…] NaCl, uremic plasma 1:2 diluted, native toxin”, the protein bound fraction is given as 91% ± 2%. Also, the “total (native) toxin concentration in uremic plasma” value (plasma of hemodialysis patients before dialysis) is given as 90 ± 28 µM.
